The target in assay [1] is T1, cyclooxygenase 1 (Ovis aries, UniProt P05979).
T1 sequence (P05979 25-600): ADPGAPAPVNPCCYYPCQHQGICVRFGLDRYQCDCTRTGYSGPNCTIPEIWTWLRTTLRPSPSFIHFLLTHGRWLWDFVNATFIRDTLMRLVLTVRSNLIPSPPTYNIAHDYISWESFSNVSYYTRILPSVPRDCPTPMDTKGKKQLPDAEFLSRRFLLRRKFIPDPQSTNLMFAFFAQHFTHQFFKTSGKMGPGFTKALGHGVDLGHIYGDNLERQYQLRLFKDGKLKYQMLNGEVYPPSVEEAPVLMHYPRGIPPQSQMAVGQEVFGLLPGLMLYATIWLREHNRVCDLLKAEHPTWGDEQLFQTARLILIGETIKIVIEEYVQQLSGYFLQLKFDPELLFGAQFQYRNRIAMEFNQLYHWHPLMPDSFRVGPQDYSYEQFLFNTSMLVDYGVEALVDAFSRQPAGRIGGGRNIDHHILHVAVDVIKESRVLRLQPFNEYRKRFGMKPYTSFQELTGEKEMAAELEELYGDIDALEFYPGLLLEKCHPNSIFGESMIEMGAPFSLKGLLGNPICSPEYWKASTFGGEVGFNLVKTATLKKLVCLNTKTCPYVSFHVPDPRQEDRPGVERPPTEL
The assay is described as follows: biochemical. Conditions: for Inhibitory effect on cyclooxygenase 1 (in words): 0.01-100 μM. On the procedure: (§1) (Specific Inhibitory Effect on Cyclooxygenase)
(§2) After the incubation, 2 μl of a 5 mM solution of arachidonic acid (dissolved in ethanol) were added (end concentration: 100 μM), followed by incubation for additional 5 minutes. After the incubation for 5 minutes, 10 μl of a 22 mM solution of ferrous chloride were added, and the resultant mixture was cooled down to 0° C. to stop the reaction. After stopping the reaction, the reaction mixture was centrifuged at 10,000×g for 5 minutes to determine the amount of prostaglandin E2 in the supernatant liquid thereof in accordance with the enzyme immunoassay. The cyclooxygenase-inhibiting effect of each test agent was determined by the average value of the amounts of prostaglandin E2 produced, which were obtained by repeating the above process twice, and the amount of prostaglandin E2 produced by using DMSO in place of the test agent to conduct the same treatment as described above.

Assay [2] deals with Production of Prostaglandin E2 by Stimulation of Human Synovial Cell by IL-1β. The assay is described as follows: Effect on production of prostaglandin E2 by stimulation of human synovial cell by IL-1β. The format is cell-based. The note with it: for inhibition at 0.001 µM / inhibition at 0.01 µM / inhibition at 0.1 µM / inhibition at 1 µM / inhibition at 10 µM / inhibition at 100 µM: Synovial cell, human synovial cells, IL-1β, 22 hours, read-out: Percent inhibition of prostaglandin E2. On the procedure: (Effect of 4'-Hydroxydiclofenac on Production of Prostaglandin E2 by Stimulation of Human Synovial Cell by IL-1β)
Synovial tissue obtained from a patient suffering from chronic articular rheumatism was placed in a Petri dish, cut and shredded, to which a 0.2% solution of collagenase was added. The mixture was left over for 2 hours under conditions of 5% CO2 and 37° C. An equiamount of a 0.25% solution of trypsin was further added, and the resultant mixture was left over for 2 hours. After cells isolated were collected and centrifuged (170 ×g, 10 minutes) to remove the supernatant liquid thereof, a medium [obtained by adding 10% FCS (fetal calf serum), 2 mM glutamine, 100 U/ml of penicillin, 100 μg/ml of streptomycin and 25 ng/ml of Fungizone to DMEM (Dulbecco modified minimum essential medium)] was added to the cells to wash them once. The cells were suspended in the medium, and the suspension was poured into a Petri dish and cultured under conditions of 5% CO2 and 37° C. Cells adhered to the bottom of the Petri dish were provided as synovial cells. The cells (1×10^5 cells/ml) were poured in 1-ml portions into wells of a 24-well plate and cultured under conditions of 5% CO2 and 37° C. After the cells were proliferated to an extent that they covered almost the entire surface of each well, the medium was changed to an SFM-101 medium (product of Nissui Seiyaku K.K.) containing 1% FCS. […] Furthermore, 10 μl (end concentration: 200 pg/ml) of a solution of IL-1βand 10 μl (end concentration: 10 μM) of arachidonic acid were added to conduct culture for 22 hours under conditions of 5% CO2 and 37° C. After the culture, the supernatant liquid thereof was collected and filtered through a membrane filter (pore size: 0.22 μm, MILLIPORE), thereby determining the amount of prostaglandin E2 in the filtrate in accordance with the enzyme immunoassay. The effect of each test agent on the production of prostaglandin E2 by the human synovial cells was determined by the average value of the amounts of prostaglandin E2 produced, which were obtained by repeating the above process 3 times, and the amount of prostaglandin E2 produced by using DMSO in place of the test agent to conduct the same treatment as described above.

The subject of assay [3] is Production of Thromboxane B2 in Platelet. The assay is described as follows: Effect on production of thromboxane B2 in platelet. The format is cell-based, rabbit. The note with it: for inhibitory effect on the production of thromboxane B2 (in words): 0.001-100 μM; for inhibition at 0.001 µM / inhibition at 0.01 µM / inhibition at 0.1 µM / inhibition at 1 µM / inhibition at 10 µM / inhibition at 100 µM: Oryctolagus cuniculus, Platelet, rabbit platelets, read-out: Percent inhibition of thromboxane B2. On the procedure: (Effect of 4'-Hydroxydiclofenac on Production of Thromboxane B2 in Platelet)
Fresh blood [adding 1 volume of ACD (acid-citrate dextrose; consisting of 65 mM citric acid, 85 mM sodium citrate and 110 mM glucose) to 9 volumes of the blood] collected from the heart of a rabbit under Nembutal anesthesia was centrifuged at 200 ×g for 10 minutes to collect the supernatant liquid thereof. The supernatant liquid was centrifuged at 700 ×g for 10 minutes, and precipitated platelets were suspended in an isotonic trishydrochloric acid buffer solution [50 mM tris(hydroxymethyl)aminomethane, 150 mM NaCl, 1 mM EDTA (ethylenediaminetetraacetic acid) and 5 mM glucose; pH: 7.2]. The suspension was further centrifuged at 700 ×g for 10 minutes and washed. […] The thus-adjusted platelet suspension was poured in 1-ml portions into test tubes. […] After the incubation, 10 μl (end concentration: 2 mM) of 200 mM CaCl2 and 5 μl (end concentration: 5 μM) of 1 mM arachidonic acid were added, followed by incubation for additional 5 minutes. After the incubation, the test tube was transferred to an ice bath to stop the reaction. The test tube was centrifuged at 1,500 ×g and 4° C. for 10 minutes. After the supernatant liquid thereof was filtered through a membrane filter (pore size: 0.22 μm, MILLIPORE), the amount of thromboxane B2 in the filtrate was determined in accordance with the enzyme immunoassay. The effect of each test agent on the production of thromboxane B2 in the platelet was determined by the average value of the amounts of thromboxane B2 produced, which were obtained by repeating the above process 3 times, and the amount of thromboxane B2 produced by using DMSO in place of the test agent to conduct the same treatment as described above.

Assay [4] addresses T2, cyclooxygenase 2 (Homo sapiens, UniProt P35354).
T2 sequence (P35354 18-604): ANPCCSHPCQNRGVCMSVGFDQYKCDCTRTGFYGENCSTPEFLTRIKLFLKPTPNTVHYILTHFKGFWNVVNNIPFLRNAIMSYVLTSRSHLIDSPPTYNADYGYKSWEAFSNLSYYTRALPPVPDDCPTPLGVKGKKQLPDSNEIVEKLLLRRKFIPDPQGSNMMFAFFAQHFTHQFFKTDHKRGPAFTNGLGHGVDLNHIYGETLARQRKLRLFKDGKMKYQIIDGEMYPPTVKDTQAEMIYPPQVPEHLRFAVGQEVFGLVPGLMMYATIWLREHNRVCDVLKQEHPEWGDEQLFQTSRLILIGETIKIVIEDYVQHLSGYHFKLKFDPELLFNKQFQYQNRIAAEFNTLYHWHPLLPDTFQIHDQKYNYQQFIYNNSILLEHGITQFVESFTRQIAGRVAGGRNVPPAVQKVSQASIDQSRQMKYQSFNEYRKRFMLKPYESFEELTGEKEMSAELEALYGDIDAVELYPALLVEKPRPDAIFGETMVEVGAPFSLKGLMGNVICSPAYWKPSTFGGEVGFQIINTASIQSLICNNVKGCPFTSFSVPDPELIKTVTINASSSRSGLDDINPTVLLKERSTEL
On the procedure:
as §1, §2

[5] abbreviates: read-out: Percent inhibition of cyclooxygenase 1.

Molecules are shown by their SMILES. Read-outs that look alike come from different tables or passages of the source.

Turning to `O=C(O)Cc1ccccc1Nc1c(Cl)cccc1Cl` [Diclofenac], the “Inhibitory effect on cyclooxygenase 1 (in words)” value in assay [1] was “Inhibitory effects on cyclooxygenase 1 and cyclooxygenase 2 are recognized”. In assay [1] (setting [5]), the inhibition (as a rule, the change of the read-out against control, counted positive when it falls) at 0.01 µM came to 25%; the inhibition at 0.1 µM was found to be 25%; the inhibition at 1 µM turned out to be 38%; the inhibition at 10 µM was 57%. In assay [1] (setting [5]), the inhibition at 100 µM was 87%. Also, in assay [2], the inhibition at 0.001 µM was 14%, the inhibition at 0.01 µM was found to be 61%, the inhibition at 0.1 µM amounted to 99% and the inhibition at 1 µM amounted to 100%. In addition, in assay [2], the inhibition at 10 µM was 100% and the inhibition at 100 µM stood at 100%. In addition, in assay [3], the “inhibitory effect on the production of thromboxane B2 (in words)” value (“inhibitory effect on the production” for short) is given as “an inhibitory effect on the production of thromboxane B2 is recognized”, the inhibition at 0.001 µM came out at 46%, the inhibition at 0.01 µM came out at 70% and the inhibition at 0.1 µM amounted to 68%. In assay [3], the inhibition at 1 µM was 77%, the inhibition at 10 µM was 93% and the inhibition at 100 µM is 99%.

On to `COc1ccc2c(c1)c(CC(=O)O)c(C)n2C(=O)c1ccc(Cl)cc1` [Indomethacin], for which, in assay [2], the inhibition at 0.001 µM was -3%, the inhibition at 0.01 µM came to 5%, the inhibition at 0.1 µM was found to be 62% and the inhibition at 1 µM was 100%. Also, in assay [2], the inhibition at 10 µM worked out at 100% and the inhibition at 100 µM is 100%. For the same molecule, in assay [3], the “inhibitory effect on the production” value is on record as “an inhibitory effect on the production of thromboxane B2 is recognized”, the inhibition at 0.001 µM was found to be 2%, the inhibition at 0.01 µM is 50% and the inhibition at 0.1 µM came out at 76%. Further, in assay [3], the inhibition at 1 µM was determined as 77%, the inhibition at 10 µM was found to be 78% and the inhibition at 100 µM turned out to be 78%.

On to `O=C(O)Cc1ccccc1Nc1c(Cl)cc(O)cc1Cl` [4'-Hydroxydiclofenac, 2-(2,6-dichloro-4-hydroxyanilino)phenylacetic acid], for which the “Percent inhibition of cyclooxygenase 2” value was determined as 21% in assay [4] (0.01 μM); 18% in assay [4] (0.1 μM); 22% in assay [4] (1 μM); 82% in assay [4] (10 μM); 90% in assay [4] (100 μM). For the same molecule, the “Inhibitory effect on cyclooxygenase 2 (in words)” value in assay [4] (0.01-100 μM) is on record as “only an inhibitory effect on the cyclooxygenase 2 activity is recognized”. Moreover, the “Percent inhibition of cyclooxygenase 1” value in assay [1] (0.01 μM) came to 0%; in assay [1] (0.1 μM) it was 0%; in assay [1] (1 μM) it was 13%; in assay [1] (10 μM) it was 3%; in assay [1] (100 μM) it was 15%. Moreover, the “Inhibitory effect on cyclooxygenase 1 (in words)” value in assay [1] is reported as “no inhibitory effect on cyclooxygenase 1 is recognized”. In assay [2] (0.001-100 μM, compared with indomethacin), the “inhibitory effect on prostaglandin E2 (in words)” value is “almost comparable to indomethacin”. Besides, the inhibition at 0.001 µM was -3% in assay [2] and -25% in assay [3]. Besides, the inhibition at 0.01 µM in assay [2] was 0%; in assay [3], -25%. The inhibition at 0.1 µM in assay [2] is 35%; in assay [3] it was 0%. The inhibition at 1 µM worked out at 100% in assay [2] and 7% in assay [3]. Further, the inhibition at 10 µM in assay [2] stood at 100%; in assay [3], 15%. The inhibition at 100 µM in assay [2] worked out at 100%; in assay [3], 77%. Also, the “inhibitory effect on the production” value in assay [3] was “clearly weak compared with indomethacin”.

Values taken from patent US5958978A, “Specific cyclooxygenase 2 inhibitor and anti-inflammatory agent” (Kabushiki Kaisha Yakult Honsha, priority 1995, dated 1999).
